Literature values as cited in paper PMC9574858, “Linker-Dependent Folding Rationalizes PROTAC Cell Permeability” (Journal of Medicinal Chemistry, 2022).

Biological target: CRBN (Homo sapiens, UniProt Q96SW2)
Design: method as in PMID 29358579

Chain of CRBN (Q96SW2 whole entry): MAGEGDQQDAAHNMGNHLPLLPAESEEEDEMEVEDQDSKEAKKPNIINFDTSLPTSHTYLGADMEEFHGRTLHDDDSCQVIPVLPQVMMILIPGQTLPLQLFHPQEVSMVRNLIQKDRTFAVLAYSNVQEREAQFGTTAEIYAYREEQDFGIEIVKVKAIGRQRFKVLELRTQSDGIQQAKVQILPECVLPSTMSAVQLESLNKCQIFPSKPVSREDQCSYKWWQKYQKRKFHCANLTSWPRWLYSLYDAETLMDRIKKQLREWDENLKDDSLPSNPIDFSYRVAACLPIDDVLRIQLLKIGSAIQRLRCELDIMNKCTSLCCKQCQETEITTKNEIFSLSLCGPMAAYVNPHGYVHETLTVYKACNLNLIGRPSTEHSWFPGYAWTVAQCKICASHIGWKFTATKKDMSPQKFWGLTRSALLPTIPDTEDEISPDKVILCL

O=C1CC[C@H](N2C(=O)c3ccccc3C2=O)C(=O)N1 [S-form of thalidomide, thalidomide]
affinity for CRBN compared with the R-form: 1 order of magnitude higher
